Tests used:
[1] = test system: cell surface membrane resialylation; conditions: compounds that affect intracellular pools of CTP; cited from earlier work
cultured neurons = conditions: acts as chain terminator after conversion to unnatural sialic acid derivative; cited from earlier work
CA3 mossy fiber synapses = assay: Mossy fiber-CA3 extracellular recordings of fEPSPs in hippocampal slices; set-up: species or system mouse
Source text: Hippocampal slices from five- to six-month-old ST8Sia-II-deficient mice and their wild-type littermates were used for recordings. After halothane anesthesia, decapitation and removal of the brain, the hippocampi were cut with a VT 1000M vibratome (Leica, Nussloch, Germany) in slices 300 μm thick in ice-cold artificial cerebrospinal fluid (ACSF) containing (in mM): 250 sucrose, 25 NaHCO3, 25 glucose, 2.5 KCl, 1.25 NaH2PO4, 2 CaCl2, and 1.5 MgCl2, pH 7.3. […]
The LTP-inducing high-frequency stimulation (HFS) consisted of one train of stimuli applied at 100 Hz during 1 sec once (“weak” stimulation protocol) or repeated four times with an interval of 20 sec (“strong” stimulation protocol). […] To additionally confirm that the fEPSPs recorded were evoked by the stimulation of mossy fibers and not by the associational/commissural pathway, an agonist of type II metabotropic glutamate receptors (L-CCG1, 10 μM; Tocris), which is known to reduce synaptic transmission in CA3 mossy fiber synapses (Manzoni, et al. Neuropharmacology (1995) 34:965-71), was applied at the end of each experiment. […] Basal synaptic transmission was monitored at 0.033 Hz. The mean amplitude of fEPSPs recorded 0-10 min before HFS was taken as 100%. Post-tetanic potentiation (PTP) was calculated as the maximal increase in the amplitude of fEPSP after HFS. […]

SMILES: N[C@H](C(=O)O)[C@@H]1CC(Cl)=NO1 [acivicin]
- cell surface membrane resialylation [1]: curtail

SMILES: CCCC(=O)N[C@@H]1C(O)O[C@H](CO)[C@@H](O)[C@@H]1O (stereo partly drawn) [N-butanoylmannosiamine]
- PSA expression on cultured neurons (cultured neurons): inhibit PSA expression

SMILES: N[C@H](C(=O)O)[C@H]1C[C@@H]1C(=O)O [L-CCG1]
- reduction of the amplitude of fEPSPs (CA3 mossy fiber synapses; L-CCG1 10 μM at end of experiment, similarly in both genotypes (wild-type and ST8Sia-II deficient)): 80%

SMILES: NC(CCCP(=O)(O)O)C(=O)O (stereo not drawn) [AP-5]
- effect on the amplitude of recorded fEPSPs (CA3 mossy fiber synapses; AP-5 50 μM, wild-type or ST8Sia-II deficient samples): did not affect the amplitude

SMILES: Nc1ccn([C@@H]2O[C@H](CO)[C@@H](O)[C@@H]2O)c(=O)n1 [1-beta-D-arabinofuranosylcytosine]
- cell surface membrane resialylation [1]: curtail

SMILES: O=C1C=CN([C@@H]2O[C@H](CO)[C@@H](O)[C@H]2O)C(=O)C1 [3-deazauridine]
- cell surface membrane resialylation [1]: curtail
